Source: US20110172217A1, “RING-FUSED MORPHOLINE DERIVATIVE HAVING PI3K-INHIBITING ACTIVITY” (Shionogi & Co., Ltd., priority 2008, published 2011)

How the values were obtained:
PI-3 kinase γ [1] = target: T1, PI-3 kinase γ (Homo sapiens, UniProt P48736); test: PI3Kγ inhibitory activity (Ki value); type: biochemical; conditions: test ATP concentration 10 μmol/L
Description: The PI3Kγ inhibitory activity (Ki value) of a compound was evaluated according to the following procedure:
5 μL of a compound solution containing 10% DMSO and 200 μmol/L of a compound was changed to 5 μL of a compound solution containing 10% DMSO and either 200, 64, 20, 6.4, 2, 0.64, or 0.20 μmol/L of the compound (optionally, this is diluted to a lower concentration). Using a method similar to the method for measuring PI3Kγ inhibitory activity, inhibition ratios were measured in the presence of the compound at 50, 16, 5, 1.6, 0.5, 0.16, and 0.05 μmol/L (optionally, a lower concentration). Then an IC50 value was calculated by a logistic approximation method or the linear regression method using two concentrations that across 50% inhibition. Separately, the ATP concentration in the reaction solution (40 μmol/L ATP, 10 mmol/L MgCl2, 5 mmol/L DTT) at the time of the start of a reaction in the absence of the compound was changed to 80, 40, 20, 10, 5, 2.5, 1.25, or 0.625 μmol/L. Then, HTRF ratios were measured by a similar method. The value obtained by subtracting the HTRF ratio at each ATP concentration from the HTRF ratio in the absence of PI-3 kinase γ was defined as the value obtained by multiplying reaction rate (v) at each ATP concentration with a constant. The Michaelis-Menten constant Km was then calculated by the Lineweaver-Burk plot method. The Ki value of a compound was calculated by the following formula.
Ki=IC50 value/(1+10 μmol/L (test ATP concentration)/Km(μmol/L))

[2] = target: T2, human ether-a-go-go related gene (hERG) channel (Homo sapiens, UniProt Q12809); test: hERG test, whole-cell patch-clamp, IKr; type: cell-based; conditions: 1 μmol/L compound; HEK293 cell expressing hERG
T2 construct: expressed in transfected cells; host or cells: HEK293
T2 sequence (Q12809 whole entry): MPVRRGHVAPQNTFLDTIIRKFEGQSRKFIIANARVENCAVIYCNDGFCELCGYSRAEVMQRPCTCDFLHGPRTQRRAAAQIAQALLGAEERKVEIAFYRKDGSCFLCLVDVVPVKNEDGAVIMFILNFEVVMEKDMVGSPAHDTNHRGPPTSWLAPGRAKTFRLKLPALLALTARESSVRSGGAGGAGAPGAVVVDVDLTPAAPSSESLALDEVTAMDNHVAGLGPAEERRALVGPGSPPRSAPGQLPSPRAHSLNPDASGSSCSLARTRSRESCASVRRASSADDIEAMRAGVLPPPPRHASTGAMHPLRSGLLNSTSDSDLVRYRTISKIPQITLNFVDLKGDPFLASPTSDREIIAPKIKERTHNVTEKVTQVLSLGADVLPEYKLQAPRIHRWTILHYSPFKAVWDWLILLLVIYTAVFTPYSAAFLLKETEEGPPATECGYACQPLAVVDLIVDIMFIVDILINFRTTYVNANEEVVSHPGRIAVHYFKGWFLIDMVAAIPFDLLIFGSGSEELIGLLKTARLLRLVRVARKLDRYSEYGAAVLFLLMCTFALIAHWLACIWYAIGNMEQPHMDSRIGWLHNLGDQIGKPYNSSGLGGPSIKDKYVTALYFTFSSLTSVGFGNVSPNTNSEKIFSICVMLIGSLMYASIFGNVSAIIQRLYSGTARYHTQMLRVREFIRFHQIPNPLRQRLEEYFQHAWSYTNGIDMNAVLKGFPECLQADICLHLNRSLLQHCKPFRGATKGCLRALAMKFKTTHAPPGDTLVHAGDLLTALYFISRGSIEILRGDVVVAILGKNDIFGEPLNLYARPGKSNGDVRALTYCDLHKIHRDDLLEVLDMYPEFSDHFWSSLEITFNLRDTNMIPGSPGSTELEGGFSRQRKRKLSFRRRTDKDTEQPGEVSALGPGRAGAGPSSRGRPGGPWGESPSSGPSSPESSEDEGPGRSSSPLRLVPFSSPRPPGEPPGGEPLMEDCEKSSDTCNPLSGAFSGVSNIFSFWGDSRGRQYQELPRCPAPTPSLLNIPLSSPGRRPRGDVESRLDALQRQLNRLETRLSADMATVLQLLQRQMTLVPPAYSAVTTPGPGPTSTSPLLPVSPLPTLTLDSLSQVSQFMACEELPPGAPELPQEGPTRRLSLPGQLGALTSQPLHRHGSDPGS
Text: For the purpose of risk evaluation of QT interval extension of electrocardiogram, the activity on delayed rectification K^+ current (IKr), which plays an important role in a cardiac ventricle repolarization process, was examined using the HEK293 cell that was made to express human ether-a-go-go related gene (hERG) channel.
Using an automatic patch-clamp system (PatchXpress 7000A, Axon Instruments Inc.), by a whole-cell patch-clamp method, after the cell was maintained at a membrane potential of −80 mV, IKr induced upon applying depolarizing stimulation of +50 mV for 2 seconds and further applying repolarizing stimulation of −50 mV for 2 seconds was recorded. After generated electric current became stable, a test substance dissolved at an intended concentration in extracellular fluid (137 mmol/L NaCl, 4 mmol/L KCl, 1.8 mmol/L CaCl2.2H2O, 1 mmol/L MgCl2.6H2O, 10 mmol/L glucose, 10 mmol/L HEPES (4-(2-hydroxyethyl)-1-piperazineethanesulfonic acid), pH=7.4) was applied to the cell for 10 minutes under room temperature condition. From the obtained IKr, the absolute value of the maximum tail current was measured using analysis software (DataXpress ver. 1, Molecular Devices Corporation) and the value of the electric current in a maintained membrane potential as baseline. Moreover, an inhibition ratio for the maximum tail current prior to the application of the test substance was calculated and then compared with a group of media-application (0.1% dimethylsulfoxide solution) to evaluate influence of the test substance on IKr.

PI-3 kinase γ [3] = target: T1, PI-3 kinase γ; test: PI3Kγ inhibitory activity, PI3-kinase HTRF assay (inhibition ratio); type: biochemical; conditions: 0.5 h, compound at 50 μmol/L
Procedure, shortened: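 Human PI3Kγ was preincubated 10 min with compound and PIP2 substrate, then reacted 30 min at room temperature with ATP (40 μmol/L in the added solution); EDTA/biotin-PIP3 quenched. HTRF 665/620 nm ratio read after 18 h, normalized to no-compound (100%) and no-enzyme (0%) controls, gave % inhibition at 50 or 10 μmol/L compound.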

[4] = Metabolic stability test, pooled human liver microsome; type: in vitro ADME; conditions: 2 μmol/L compound; human liver microsome 0.5 mg protein/mL, NADPH, 37° C.
Description: After a subject compound was reacted for a certain time using a commercially available pooled human liver microsome, a reacted sample and an unreacted sample are compared to calculate a survival ratio, and then the degree of metabolism in the liver was evaluated.
0.2 mL of a buffer solution (50 mmol/L of Tris-HCl in pH 7.4, 150 mmol/L of potassium chloride, and 10 mmol/L of magnesium chloride) containing a human liver microsome of 0.5 mg protein/mL was reacted in the presence of 1 mmol/L NADPH at 37° C. for 0 or 30 minutes (oxidative reaction). After reacting, 50 μL of the reaction solution was added to 100 μL of a solution of methanol/acetonitrile (1/1 (v/v)), mixed, and then centrifuged at 3000 rpm for 15 minutes. The test compound in the supernatant was quantitated with LC/MS/MS. The amount of the compound at a reaction time of 0 minute was defined as 100% and, based on that, the percentage of the test compound remained after reacting for 30 minutes was calculated.

T1 sequence (P48736 whole entry): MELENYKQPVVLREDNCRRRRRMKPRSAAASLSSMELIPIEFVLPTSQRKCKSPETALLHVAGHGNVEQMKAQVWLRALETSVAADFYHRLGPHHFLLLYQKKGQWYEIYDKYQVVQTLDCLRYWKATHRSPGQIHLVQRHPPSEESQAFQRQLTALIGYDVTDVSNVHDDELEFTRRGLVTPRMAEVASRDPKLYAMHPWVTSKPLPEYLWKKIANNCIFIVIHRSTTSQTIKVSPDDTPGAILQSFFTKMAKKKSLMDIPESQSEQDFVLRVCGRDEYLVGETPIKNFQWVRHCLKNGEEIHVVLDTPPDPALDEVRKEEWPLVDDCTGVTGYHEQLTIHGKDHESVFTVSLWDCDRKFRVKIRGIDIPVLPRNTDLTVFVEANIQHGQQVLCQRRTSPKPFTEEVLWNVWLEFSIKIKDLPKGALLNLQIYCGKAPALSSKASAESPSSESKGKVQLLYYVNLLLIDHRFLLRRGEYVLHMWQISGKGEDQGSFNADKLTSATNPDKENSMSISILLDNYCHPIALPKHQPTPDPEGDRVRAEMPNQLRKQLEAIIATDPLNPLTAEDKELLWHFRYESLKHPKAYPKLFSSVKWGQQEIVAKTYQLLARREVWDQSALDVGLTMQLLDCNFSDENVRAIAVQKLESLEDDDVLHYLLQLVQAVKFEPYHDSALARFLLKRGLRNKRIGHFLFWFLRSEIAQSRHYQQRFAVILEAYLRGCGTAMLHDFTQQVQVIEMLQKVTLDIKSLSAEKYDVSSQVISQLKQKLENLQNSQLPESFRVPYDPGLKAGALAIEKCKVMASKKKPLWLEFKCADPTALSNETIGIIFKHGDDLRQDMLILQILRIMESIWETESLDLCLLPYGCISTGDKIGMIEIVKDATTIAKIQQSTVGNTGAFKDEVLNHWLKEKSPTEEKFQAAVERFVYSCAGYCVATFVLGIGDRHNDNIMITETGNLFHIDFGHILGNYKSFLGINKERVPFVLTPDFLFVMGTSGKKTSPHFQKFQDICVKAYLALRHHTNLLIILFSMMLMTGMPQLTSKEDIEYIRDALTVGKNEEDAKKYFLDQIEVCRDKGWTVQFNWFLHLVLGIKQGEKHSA

| SMILES | Ki (PI-3 kinase γ [1]) [nM] | hERG inhibition ratio for the maximum tail current (IKr) [2] [%] | inhibition at 50 µM (PI-3 kinase γ [3]) [%] | percentage of test compound remained after reacting for 30 minutes [4] [%] |
| --- | --- | --- | --- | --- |
| O=C(O)c1ccccc1Nc1ccc2c(n1)N(C(=O)Nc1ccccc1)CCO2 [Compound I-145] | 44 | 15 | 81 | 88.4 |
| O=C(O)COc1cccc(Nc2ccc3c(n2)N(C(=O)Nc2ccccc2)CCO3)c1 [Compound I-240] | 48 |  | ≥ 95 | 89.9 |
